Some results are limits rather than exact numbers.

As a reminder, the Ki is a measure of affinity in units of concentration, obtained from inhibition or displacement. A higher Ki goes with weaker binding. A word on the EC50: it is the midpoint of the concentration-response curve.

In one experiment the target is GST-Bcl-2 (Homo sapiens, UniProt P10415). Description: TR-FRET binding assay, GST-Bcl-2 with F-Bak peptide probe. The settings on record: TR-FRET Binding Affinity, GST-Bcl-2, F-Bak peptide probe. The procedure, abridged:
(§1)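 Ki was derived with Wang's equation for competitive binding of two ligands. The read-out was time-resolved fluorescence after a 3 h room-temperature incubation, using a Tb-labelled antibody donor and the F-Bak peptide acceptor (excitation 340/35 nm). Test compounds entered as DMSO serial dilutions starting at 50 μM, which was the 2× concentration.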
For orientation: In TR-FRET formats the signal depends on donor and acceptor labels being close together.

Another experiment deals with GST-Bcl-XL (Homo sapiens, UniProt Q07817). Description: TR-FRET binding assay, GST-Bcl-XL with F-Bak peptide probe. The settings on record: TR-FRET Binding Affinity, GST-Bcl-XL, F-Bak peptide probe. Summed up:
as §1

Another experiment deals with FL5.12/Bcl-2 cells. Description: FL5.12/Bcl-2 cell viability assay under IL-3 withdrawal (CellTitre Glo). Format: cell-based, murine. Particulars: Mus musculus, IL-3 withdrawn 48 hrs, then 24 hrs with compound. Summed up: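 IL-3 withdrawal 48 hrs (no WEHI-3B medium), then compound 24 hrs, various concentrations; 37° C, 5% CO2; readout CellTitre Glo. Murine prolymphocytic FL5.12 stably overexpressing Bcl-2.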

GST-Bcl-2, sequence (P10415 whole entry): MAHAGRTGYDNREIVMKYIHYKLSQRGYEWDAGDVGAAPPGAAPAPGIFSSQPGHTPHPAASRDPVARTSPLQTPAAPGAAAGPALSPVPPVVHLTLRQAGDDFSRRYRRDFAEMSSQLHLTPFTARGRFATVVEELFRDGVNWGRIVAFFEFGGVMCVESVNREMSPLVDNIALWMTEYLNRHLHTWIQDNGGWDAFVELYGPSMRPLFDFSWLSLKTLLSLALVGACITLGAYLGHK
GST-Bcl-XL, sequence (Q07817 whole entry): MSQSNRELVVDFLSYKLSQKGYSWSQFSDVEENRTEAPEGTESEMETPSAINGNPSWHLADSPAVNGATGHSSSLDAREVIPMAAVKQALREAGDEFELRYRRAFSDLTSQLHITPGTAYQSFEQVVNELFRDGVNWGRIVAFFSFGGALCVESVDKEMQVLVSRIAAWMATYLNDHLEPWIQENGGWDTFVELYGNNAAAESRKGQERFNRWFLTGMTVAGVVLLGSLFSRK

For the compound `CC1(C)CCC(CN2CCN(c3ccc(C(=O)NS(=O)(=O)c4ccc(NC5CCN(CCn6cccn6)CC5)c([N+](=O)[O-])c4)c(Oc4ccc5[nH]ccc5c4)c3)CC2)=C(c2ccc(Cl)cc2)C1` [Example 243, 4-(4-{[2-(4-chlorophenyl)-4,4-dimethylcyclohex-1-en-1-yl]methyl}piperazin-1-yl)-2-(1H-indol-5-yloxy)-N-{[3-nitro-4-({1-[2-(1H-pyrazol-1-yl)ethyl]piperidin-4-yl}amino)phenyl]sulfonyl}benzamide], the Ki at GST-Bcl-2 was 0.28 nM; at GST-Bcl-XL, greater than 660 nM. Moreover, the EC50 in the experiment on FL5.12/Bcl-2 cells was found to be 28 nM.

On to `CC1(C)CCC(CN2CCN(c3ccc(C(=O)NS(=O)(=O)c4ccc(NCC5CCOCC5)c([N+](=O)[O-])c4)c(Oc4cccc5[nH]ccc45)c3)CC2)=C(c2ccc(Cl)cc2)C1` [Example 244, 4-(4-{[2-(4-chlorophenyl)-4,4-dimethylcyclohex-1-en-1-yl]methyl}piperazin-1-yl)-2-(1H-indol-4-yloxy)-N-({3-nitro-4-[(tetrahydro-2H-pyran-4-ylmethyl)amino]phenyl}sulfonyl)benzamide], for which the figures for the Ki at GST-Bcl-2 and at GST-Bcl-XL were 0.16 nM and greater than 660 nM, respectively. The EC50 in the experiment with FL5.12/Bcl-2 cells was found to be 20.2 nM.

With `CNc1ccc(S(=O)(=O)NC(=O)c2ccc(N3CCN(CC4=C(c5ccc(Cl)cc5)CC(C)(C)CC4)CC3)cc2Oc2ccc3[nH]ccc3c2)cc1[N+](=O)[O-]` [Example 245, 4-(4-{[2-(4-chlorophenyl)-4,4-dimethylcyclohex-1-en-1-yl]methyl}piperazin-1-yl)-2-(1H-indol-5-yloxy)-N-{[4-(methylamino)-3-nitrophenyl]sulfonyl}benzamide], the Ki at GST-Bcl-2 was 1.62 nM; at GST-Bcl-XL, greater than 660 nM. In the experiment on FL5.12/Bcl-2 cells, the EC50 came to 72.4 nM.

Consider `CNc1ccc(S(=O)(=O)NC(=O)c2ccc(N3CCN(CC4=C(c5ccc(Cl)cc5)CC(C)(C)CC4)CC3)cc2Oc2cccc3[nH]ccc23)cc1[N+](=O)[O-]` [Example 246, 4-(4-{[2-(4-chlorophenyl)-4,4-dimethylcyclohex-1-en-1-yl]methyl}piperazin-1-yl)-2-(1H-indol-4-yloxy)-N-{[4-(methylamino)-3-nitrophenyl]sulfonyl}benzamide], for which the results for the Ki on GST-Bcl-2 and on GST-Bcl-XL were 0.783 nM and 384 nM, respectively. Besides, in the experiment with FL5.12/Bcl-2 cells, the EC50 came out at 48 nM.

For the compound `CC(c1ccccc1-c1ccc(Cl)cc1)N1CCN(c2ccc(C(=O)NS(=O)(=O)c3ccc(NCCCN4CCOCC4)c([N+](=O)[O-])c3)c(Oc3cccc4[nH]ccc34)c2)CC1` (stereo not drawn) [Example 247, 4-{4-[1-(4′-chloro-1,1′-biphenyl-2-yl)ethyl]piperazin-1-yl}-2-(1H-indol-4-yloxy)-N-({4-[(3-morpholin-4-ylpropyl)amino]-3-nitrophenyl}sulfonyl)benzamide], the Ki amounted to 0.188 nM at GST-Bcl-2 and 27.3 nM on GST-Bcl-XL. In addition, the EC50 in the experiment with FL5.12/Bcl-2 cells came out at 16.1 nM.

With `O=C(NS(=O)(=O)c1ccc(NCC2CCOCC2)c([N+](=O)[O-])c1)c1ccc(N2CCN(CC3=C(c4ccc(Cl)cc4)CCC(O)C3)CC2)cc1Oc1ccc2[nH]ccc2c1` (stereo not drawn) [Example 248, 4-(4-{[2-(4-chlorophenyl)-5-hydroxycyclohex-1-en-1-yl]methyl}piperazin-1-yl)-2-(1H-indol-5-yloxy)-N-({3-nitro-4-[(tetrahydro-2H-pyran-4-ylmethyl)amino]phenyl}sulfonyl)benzamide], the Ki is 0.013 nM at GST-Bcl-2 and 155 nM on GST-Bcl-XL. Also, the EC50 in the experiment with FL5.12/Bcl-2 cells was 49.8 nM.

Consider `O=C(NS(=O)(=O)c1ccc(NCC2CCOCC2)c([N+](=O)[O-])c1)c1ccc(N2CCN(CC3=C(c4ccc(Cl)cc4)CCC(N4CCOCC4)C3)CC2)cc1Oc1ccc2[nH]ccc2c1` (stereo not drawn) [Example 249, 4-(4-{[2-(4-chlorophenyl)-5-morpholin-4-ylcyclohex-1-en-1-yl]methyl}piperazin-1-yl)-2-(1H-indol-5-yloxy)-N-({3-nitro-4-[(tetrahydro-2H-pyran-4-ylmethyl)amino]phenyl}sulfonyl)benzamide], for which the Ki on GST-Bcl-2 is 0.09 nM; on GST-Bcl-XL, greater than 660 nM. Besides, the EC50 with FL5.12/Bcl-2 cells is 41.2 nM.

Take `CC1(C)CCC(CN2CCN(c3ccc(C(=O)NS(=O)(=O)c4ccc(NCC5(N)CCCCC5)c([N+](=O)[O-])c4)c(Oc4ccc5[nH]ccc5c4)c3)CC2)=C(c2ccc(Cl)cc2)C1` [Example 250, N-[(4-{[(1-aminocyclohexyl)methyl]amino}-3-nitrophenyl)sulfonyl]-4-(4-{[2-(4-chlorophenyl)-4,4-dimethylcyclohex-1-en-1-yl]methyl}piperazin-1-yl)-2-(1H-indol-5-yloxy)benzamide]: the Ki on GST-Bcl-2 was found to be 0.266 nM; at GST-Bcl-XL it was 215 nM. Further, the EC50 in the experiment on FL5.12/Bcl-2 cells amounted to 79.5 nM.

Take `CC1(C)CCC(CN2CCN(c3ccc(C(=O)NS(=O)(=O)c4ccc(NCCN5CCCC5=O)c([N+](=O)[O-])c4)c(Oc4ccc5[nH]ccc5c4)c3)CC2)=C(c2ccc(Cl)cc2)C1` [Example 251, 4-(4-{[2-(4-chlorophenyl)-4,4-dimethylcyclohex-1-en-1-yl]methyl}piperazin-1-yl)-2-(1H-indol-5-yloxy)-N-[(3-nitro-4-{[2-(2-oxopyrrolidin-1-yl)ethyl]amino}phenyl)sulfonyl]benzamide]: the Ki at GST-Bcl-2 stood at 0.328 nM; at GST-Bcl-XL, 472 nM. Besides, the EC50 in the experiment on FL5.12/Bcl-2 cells was 78.1 nM.

Turning to `CC(c1ccccc1-c1ccc(Cl)cc1)N1CCN(c2ccc(C(=O)NS(=O)(=O)c3ccc(NCC4CCOCC4)c([N+](=O)[O-])c3)c(Oc3ccc4[nH]ccc4c3)c2)CC1` (stereo not drawn) [Example 252, 4-{4-[1-(4′-chloro-1,1′-biphenyl-2-yl)ethyl]piperazin-1-yl}-2-(1H-indol-5-yloxy)-N-({3-nitro-4-[(tetrahydro-2H-pyran-4-ylmethyl)amino]phenyl}sulfonyl)benzamide], the values for the Ki on GST-Bcl-2 and at GST-Bcl-XL were 0.077 nM and greater than 660 nM, respectively. Also, the EC50 in the experiment on FL5.12/Bcl-2 cells was 6.62 nM.

Take `CC(C1=C(c2ccc(Cl)cc2)CC(C)(C)CC1)N1CCN(c2ccc(C(=O)NS(=O)(=O)c3ccc(NCC4CCOCC4)c([N+](=O)[O-])c3)c(Oc3ccc4[nH]ccc4c3)c2)CC1` (stereo not drawn) [Example 253, 4-(4-{1-[2-(4-chlorophenyl)-4,4-dimethylcyclohex-1-en-1-yl]ethyl}piperazin-1-yl)-2-(1H-indol-5-yloxy)-N-({3-nitro-4-[(tetrahydro-2H-pyran-4-ylmethyl)amino]phenyl}sulfonyl)benzamide]: the Ki is 0.142 nM at GST-Bcl-2 and greater than 660 nM at GST-Bcl-XL. Further, the EC50 with FL5.12/Bcl-2 cells is 7.58 nM.

For `CC(C1=C(c2ccc(Cl)cc2)CC(C)(C)CC1)N1CCN(c2ccc(C(=O)NS(=O)(=O)c3ccc(NN4CCN(C)CC4)c([N+](=O)[O-])c3)c(Oc3ccc4[nH]ccc4c3)c2)CC1` (stereo not drawn) [Example 254, 4-(4-{1-[2-(4-chlorophenyl)-4,4-dimethylcyclohex-1-en-1-yl]ethyl}piperazin-1-yl)-2-(1H-indol-5-yloxy)-N-({4-[(4-methylpiperazin-1-yl)amino]-3-nitrophenyl}sulfonyl)benzamide], the Ki on GST-Bcl-2 came out at 0.126 nM; on GST-Bcl-XL, 53.3 nM. The EC50 in the experiment on FL5.12/Bcl-2 cells is 16.9 nM.

As to `C[C@H](c1ccccc1-c1ccc(Cl)cc1)N1CCN(c2ccc(C(=O)NS(=O)(=O)c3ccc(NCC4CCOCC4)c([N+](=O)[O-])c3)c(Oc3cccc4[nH]ccc34)c2)CC1` [Example 255, 4-{4-[(1R)-1-(4′-chloro-1,1′-biphenyl-2-yl)ethyl]piperazin-1-yl}-2-(1H-indol-4-yloxy)-N-({3-nitro-4-[(tetrahydro-2H-pyran-4-ylmethyl)amino]phenyl}sulfonyl)benzamide], the Ki on GST-Bcl-2 was 7.83 nM; on GST-Bcl-XL, greater than 660 nM. The EC50 in the experiment on FL5.12/Bcl-2 cells is greater than 500 nM.

For the origin of these results see patent US9073855B2, “BCL-2 selective apoptosis-inducing agents for the treatment of cancer and immune diseases” (AbbVie Inc., priority 2008, dated 2015).
